Values joined by “and” are separate entries in the source; they are usually repeats but may differ in a detail not shown here. Equal values may be shown once. Each block holds one compound with its values, some of them ahead of it.
Assays:
HepG2 cells [1] = conditions: cited from earlier work; for Post-thaw cell recovery after preconditioning: HepG2 cells and other cell lines, increased from approximately 10–20% ref 22,23
HepG2 cells [2] = test: Drug dose–response, resazurin reduction cell viability; type: cell-based; conditions: Homo sapiens, HepG2, 24 h, 24 h treatment
Method: Statistical analysis and data visualization were performed using GraphPad Prism 8 (La Jolla, California, USA). The Shapiro-Wilk test and Levene test were utilized to assess the normality of the data and equality of variances between groups. If the data met the assumptions of normality and equal variance, it was reported as mean ± SEM. Statistical significance between the means of 2 groups were assessed using an unpaired (independent) T-test and for 2+ groups a one-way analysis of variance (ANOVA), followed by Tukey's post hoc analysis, was used. […] Statistical significance between means was determined using Welch's t-test. The significance levels were represented as follows: not significant (ns) for p ≥ 0.05, * for p ≤ 0.05, ** for p ≤ 0.01, and **** for p ≤ 0.0001. Dose–response curves were generated using nonlinear regression with a variable slope (four parameters) fitted by the least squares regression method, without any weighting. GraphPad determined the EC50 values based on the fitting process. […] Fluorescence measurements were recorded with excitation and emission at 530/25 nm and 590/30 using a BioTek Synergy HT microplate reader. Wells with resazurin solution alone were also measured for background subtraction and cells untreated with pharmaceutically active compounds were measured as a maximum resazurin reduction value. […] Cell culture medium was replaced by cell culture media supplemented with acetaminophen (0–92.6 mM), diclofenac (0–3.4 mM), doxorubicin (0–9.2 mM), metformin (0–310 µM), phenformin (0–97.4 µM) and valproic acid (0–50 mM) and […] The cell culture medium was replaced with 100 µL of resazurin solution, prepared by dissolving 1 resazurin tablet (Scientific Laboratory Supplies, Nottingham, UK) in 50 mL of phenol-free DMEM/F-12 medium supplemented with 10% FBS and sterile filtered. The cells were incubated for 2 h in […] Fluorescence measurements were recorded with excitation and emission at 530/25 nm and 590/30 using a BioTek Synergy HT microplate reader. Wells with resazurin solution alone were also measured for background subtraction and cells untreated with pharmaceutically active compounds were measured as a maximum resazurin reduction value. Percentage cell viability was reported using the fluorescence readings using the following equation: Sample Fluorescence − Background Fluorescence x 100 Maximum (Untreated) Fluorescence − Background Fluorescence 1.7 Primary Hepatocyte Cryopreservation Mice were bred at the University of Warwick after local AWERB and Home Office approvals (PP3644080). Hepatocytes were isolated from adult (8- to 12-weeks old) male and female C57BL/6NCrl mice livers, via a two-step perfusion process. After cervical dislocation, the peritoneal cavity was open and a 27G needle was inserted into the vena cava. Perfusion was carried out through the vena cava at a flow rate of 6 mL.min-1 for 10 mins with buffers warmed S11

[3] = tested on: primary mouse hepatocytes; test: as above; type: cell-based; conditions: Hepatocyte, 24 h, 24 h treatment
Method: Non-frozen and freeze/thaw hepatocytes were treated with diclofenac (0–3.4 μM) and metformin (0–77.4 mM) and placed in a humidified environment at 37 °C and 5% CO2 for 24 h. The cell culture medium was replaced with 100 μL of resazurin solution and the cells were incubated for 2 h in a humidified environment at 37 °C and 5% CO2. Fluorescence measurements were recorded with excitation and emission at 530/25 nm and 590/30 using a BioTek Synergy HT microplate reader. […] Percentage cell viability was reported using the fluorescence readings using the following equation: [drawing 2]
The cell culture medium of freeze/thaw hepatocytes, produced in section 1.7, was replaced by
maintenance medium supplemented with diclofenac (0–3.4 mM) and metformin (0–77 µM)
and placed in a humidified environment at 37 °C and 5% CO2 for 24 h. The cell culture medium
(Scientific Laboratory Supplies, Nottingham, UK) in 50 mL of maintenance medium
supplemented with 10% FBS and sterile filtered. The cells were incubated for 24 h in a
humidified environment at 37 °C and 5% CO2. Fluorescence measurements were recorded with
𝑆𝑎𝑚𝑝𝑙𝑒 𝐹𝑙𝑢𝑜𝑟𝑒𝑠𝑐𝑒𝑛𝑐𝑒 − 𝐵𝑎𝑐𝑘𝑔𝑟𝑜𝑢𝑛𝑑 𝐹𝑙𝑢𝑜𝑟𝑒𝑠𝑐𝑒𝑛𝑐𝑒 x 100
𝑀𝑎𝑥𝑖𝑚𝑢𝑚 (𝑈𝑛𝑡𝑟𝑒𝑎𝑡𝑒𝑑) 𝐹𝑙𝑢𝑜𝑟𝑒𝑠𝑐𝑒𝑛𝑐𝑒 − 𝐵𝑎𝑐𝑘𝑔𝑟𝑜𝑢𝑛𝑑 𝐹𝑙𝑢𝑜𝑟𝑒𝑠𝑐𝑒𝑛𝑐𝑒

HepG2 cells [4] = test: Post-thaw percentage cell recovery of monolayers in 96 well plates (Trypan Blue counts); type: cell-based, Human; conditions: −80 °C, 24 h post-thaw, additives supplemented with 10% DMSO
Method: (§1) HepG2 cells (density dependent on assay) and mouse hepatocytes (30k cell per well) were plated on rat tail type I collagen (100 μg mL^−1) coated 96 well plates and incubated for 24 hours. The cryoprotectant solution was prepared in advance. Hornbeam pollen (0.8 g) was suspended in sterile water (10 mL) for 24 h at 4 °C. The solution was sterile filtered and mixed 1 : 1 with either Eagle's minimum essential base medium (HepG2) or Williams E base medium (Mouse hepatocytes) supplemented with 20% FBS and 20% DMSO (final concentration 10%) to produce the cryopreservation formulation. The cell culture medium of the cells was replaced with 100 μL of the prechilled cryopreservation formulation (4 °C) and the plates were placed on a Corning XT CoolSink 96F and in a −80 °C freezer overnight. HepG2 cells and hepatocytes were also cryopreserved with 10% DMSO alone in cell culture medium for comparison. To thaw the cells, 150 μL of warm complete/thawing cell culture medium (37 °C) was added and the plates were placed in the incubator for 12 min. […]
(§2) HepG2 cells were cryopreserved between 1.6–30k cell per well and hepatocytes at a density of 30k cell per well. […] Freeze/Thaw and non-frozen HepG2 cells were counted daily until 80–90% confluency was reached to determine proliferation rates. […]

A549 cells = test: Post-thaw percentage cell recovery of monolayers in 96 well plates; type: cell-based, Human; conditions: 24 h post-thaw
Method: °C and 150 µL of warm complete cell medium (37 °C) was added. The cells were placed in the incubator for 12 mins, to allow thawing, and the solutions were replaced with 200 µL of warm complete cell medium (37 °C). The cells were placed in the incubator for a further 24 h.
Percentage cell recovery was determined by dissociating cells with trypsin (0.25%) and EDTA (1 mM), staining the cells with trypan blue (to count membrane intact cells) and comparing cell counts immediately before and 24 h after freeze/thaw. A549 cells were cryopreserved using the same approach as confluent monolayers (20k cells/well) and varying cell densities (outlined throughout) as another comparative cell line, using Ham's F-12K (Kaighn's) Medium supplemented with 10% FBS and 1% PSA as the complete growth medium and Ham's F-12K (Kaighn's) Medium alone as the base medium. Cell recovery values were also obtained for plates containing A549 and HepG2 cells stored for over 1 month in a -80 °C freezer.
1.5 Assessing Cellular Health
HepG2 cells (7.5k cell/well) were seeded in collagen (12.7 µg/cm2) coated 96 well plates and A549 cells (7.5k cell/well) were seeded in collagen uncoated 96 well plates. The plates were freeze/thawed as described in section 1.4. […]

[5] = tested on: primary mouse hepatocytes; test: Post-thaw percentage cell recovery of monolayers in 96 well plates (Trypan Blue counts); type: cell-based; conditions: primary mouse hepatocyte monolayers, 24 h post-thaw
Method: as §1, §2

[6] = Freeze/Thaw HepG2 cells (24 h post-thaw)
[7] = Freeze/Thaw adherent primary mouse hepatocytes
[8] = Non-frozen primary mouse hepatocytes

SMILES: O=C(O)[C@@H]1CCCN1 [proline]
Post-thaw cell recovery after preconditioning (HepG2 cells [1]): 50%

SMILES: CC(=O)Nc1ccc(O)cc1 [Acetaminophen, acetaminophen]
EC50 (HepG2 cells [2]; [6]): 11700 µM | EC50 (HepG2 cells [2]; Non-frozen HepG2 cells): 14200 µM

SMILES: CC(C)CCC[C@@H](C)[C@H]1CC[C@H]2[C@@H]3CC=C4C[C@@H](O)CC[C@]4(C)[C@H]3CC[C@]12C.O [cholesterol monohydrate]
Post-thaw percentage cell recovery (HepG2 cells [4]): ~60%

SMILES: OC[C@H]1O[C@H](O[C@H]2O[C@H](CO)[C@@H](O)[C@H](O)[C@H]2O)[C@H](O)[C@@H](O)[C@@H]1O [trehalose]
Post-thaw cell recovery after preconditioning (HepG2 cells [1]): 50% | Cell recovery after preconditioning with trehalose (HepG2 cells [1]; HepG2 monolayers ref 23): 42%

SMILES: O=C(O)Cc1ccccc1Nc1c(Cl)cccc1Cl [Diclofenac, diclofenac]
EC50 [3, 7]: 880 µM | EC50 [3, 8]: 780 µM

SMILES: C[S+](C)[O-] [10% DMSO, dimethyl sulfoxide]
Post-thaw percentage cell recovery (A549 cells): 29% | Post-thaw percentage cell recovery (HepG2 cells [4]): 10% and 12.6% | Post-thaw percentage cell recovery [5]: 50%

The next lines start with results.

EC50 (HepG2 cells [2]; [6]): 16.3 µM | EC50 (HepG2 cells [2]; Non-frozen HepG2 cells): 2 µM
SMILES: COc1cccc2c1C(=O)c1c(O)c3c(c(O)c1C2=O)C[C@@](O)(C(=O)CO)C[C@@H]3O[C@H]1C[C@H](N)[C@H](O)[C@H](C)O1 [Doxorubicin, doxorubicin]

EC50 (HepG2 cells [2]; [6]): 1790 µM | EC50 (HepG2 cells [2]; Non-frozen HepG2 cells): 2880 µM
SMILES: CCCC(CCC)C(=O)O [VPA, valproic acid]

EC50 (HepG2 cells [2]; [6]): 4280 µM | EC50 (HepG2 cells [2]; Non-frozen HepG2 cells): 3780 µM
SMILES: CN(C)C(=N)N=C(N)N [Metformin, metformin]
EC50 [3, 7]: 600 µM | EC50 [3, 8]: 780 µM

EC50 (HepG2 cells [2]; [6]): 290 µM | EC50 (HepG2 cells [2]; Non-frozen HepG2 cells): 330 µM
SMILES: [H]/N=C(/N)N/C(=N/[H])NCCc1ccccc1 [Phenformin, phenformin]

From paper PMC10661096, “Cryopreservation of assay-ready hepatocyte monolayers by chemically-induced ice nucleation: preservation of hepatic function and hepatotoxicity screening capabilities” (Biomaterials Science, 2023)
